Data reported in patent publication US7179807B2, “5-substituted-2-arylpyrazines” (Neurogen Corporation, priority 2002, dated 2007).

These molecules were tested against T1, CRF1 receptor (Homo sapiens, UniProt P34998) (assay: standard in vitro CRF receptor binding assay (125I-CRF, IMR-32 cell membranes)). Settings: Table I; asterisk = tested in the Example 30 assay, membranes of BrdU-induced IMR-32 cells, 125I-CRF 100 pM; read-out: Ki < 1 μM.
T1 construct: To induce CRF1 receptor expression, the cells are grown to approximately 80% confluence; endogenous in cells; host or cells: IMR-32 human neuroblastoma cells, BrdU-induced, as membrane homogenates
T1 sequence (P34998 24-415): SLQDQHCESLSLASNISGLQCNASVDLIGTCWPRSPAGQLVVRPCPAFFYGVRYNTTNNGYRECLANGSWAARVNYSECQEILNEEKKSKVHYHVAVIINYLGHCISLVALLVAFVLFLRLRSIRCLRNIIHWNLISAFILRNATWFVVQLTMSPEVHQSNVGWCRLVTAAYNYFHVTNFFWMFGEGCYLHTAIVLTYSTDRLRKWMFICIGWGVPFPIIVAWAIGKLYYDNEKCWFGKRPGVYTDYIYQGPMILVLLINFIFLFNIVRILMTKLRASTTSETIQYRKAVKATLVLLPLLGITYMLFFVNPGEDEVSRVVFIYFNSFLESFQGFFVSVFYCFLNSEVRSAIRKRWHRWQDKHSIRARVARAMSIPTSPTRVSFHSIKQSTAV
Procedure: As discussed above, the following assay is defined herein as a standard in vitro CRF receptor binding assay. The pharmaceutical utility of compounds of this invention is indicated by the following assay for CRF1 receptor activity.
The CRF receptor binding is performed using a modified version of the assay described by Grigoriadis and De Souza (Methods in Neurosciences, Vol. 5, 1991). IMR-32 human neuroblastoma cells, a cell line that can be induced to express the CRF1 receptor, are cultured in growth medium consisting of EMEM w/Earle's BSS (JRH Biosciences, Cat# 51411) supplemented with 10% Fetal Bovine Serum, 25 mM HEPES (pH 7.2), 1 mM Sodium Pyruvate, and Non-Essential Amino Acids (JRH Biosciences, Cat# 58572). Stock cultures of cells are grown to confluence and subcultured twice per week at split ratios of 1:2 to 1:4 (cells are dislodged during subculturing using No-Zyme, JRH Biosciences, Cat# 59226). To induce CRF1 receptor expression, the cells are grown to approximately 80% confluence and then changed to growth media containing 2.5 μM 5-bromo-2′deoxyuridine (BrdU, Sigma, Cat# B9285). Growth media containing BrdU is replaced every 3–4 days and the cells are harvested via centrifugation (using No-Zyme) after 10 days of BrdU treatment. Harvested cells are stored frozen at −80° C. until needed for the preparation of membrane homogenates.
To prepare receptor-containing membranes cells are homogenized in wash buffer (50 mM Tris HCl, 10 mM MgCl2, 2 mM EGTA, pH 7.4) and centrifuged at 48,000×g for 10 minutes at 4° C. The pellet is re-suspended in wash buffer and the homogenization and centrifugation steps are performed once more.
Membrane pellets (containing CRF receptors) are resuspended and brought to a final concentration of 1.0 mg membrane protein/ml in binding buffer (Tris buffer above with 0.1% BSA and 0.1 mM bacitracin). For the binding assay, 150 microliters of the membrane preparation is added to 96 well microtube plates containing 50 microliters of ^125I-CRF (SA 2200 Ci/mmol, final concentration of 100 pM) and 2 microliters of test compound. Binding is carried out at room temperature for 2 hours. Plates are then harvested using 50 mM Tris buffer pH 7.4, on a BRANDEL 96 well cell harvester and filters (soaked in 1% PEI for 1.5 hours) are counted for gamma emissions on a Wallac 1205 BETAPLATE liquid scintillation counter. Non-specific binding is defined by 2 micromolar cold CRF. Ki values are calculated with the non-linear curve fitting program RS/1 (BBN Software Products Corp., Cambridge, Mass.).
With `CCc1nc(OC(CC)CC)c(NC)nc1-c1ccc(C(C)C)nc1N1CCC1` [Compound 13, [6-(2-Azetidin-1-yl-6-isopropyl-pyridin-3-yl)-5-ethyl-3-(1-ethyl-propoxy)-pyrazin-2-yl]-methyl-amine] the Ki was < 1 µM.
For `CCc1cc(-c2nc(OC)c(NC(CC)CC)nc2C)c(C)nc1OC` [Compound 1, [5-(5-Ethyl-6-methoxy-2-methyl-pyridin-3-yl)-3-methoxy-6-methyl-pyrazin-2-yl]-(1-ethyl-propyl)-amine], the Ki was < 1 µM.
`CCc1nc(OC(CC)CC)c(NC)nc1-c1ccc(C(C)C)nc1C` [Compound 8, [5-Ethyl-6-(2-methyl-6-isopropyl-2-pyridin-3-yl)-3-(1-ethyl-propoxy)-pyrazin-2-yl]-methyl-amine] was tested, and the Ki was < 1 µM.
For `CCc1cc(-c2nc(NC)c(OC(CC)CC)nc2C)c(C)nc1OC` [Compound 3, [5-Methyl-6-(5-ethyl-6-methoxy-2-methyl-pyridin-3-yl)-3-(1-ethyl-propoxy)-pyrazin-2-yl]-methyl-amine], the Ki was < 1 µM.
`CCC(CC)Oc1nc(C)c(-c2cc(C)c(NC(C)C)nc2C)nc1NC` [Compound 17, [3-(1-Ethyl-propoxy)-6-(6-isopropyl-amino-2,5-dimethyl-pyridin-3-yl)-5-methyl-pyrazin-2-yl]-methyl-amine] was tested, and the Ki was < 1 µM.
`CCc1nc(OC(CC)CC)c(NC)nc1-c1ccc(C(C)C)nc1N(CC)CC` [Compound 14, [6-(2-Diethylamino-6-isopropyl-pyridin-3-yl)-5-ethyl-3-(1-ethyl-propoxy)-pyrazin-2-yl]-methyl-amine] was tested, and the Ki was < 1 µM.
With “[5-Ethyl-6-(2-ethyl-6-isopropoxy-2-pyridin-3-yl)-3-(1-ethyl-propoxy)-pyrazin-2-yl]-methyl-amine [Compound 6]” the Ki was < 1 µM.
With `CCc1nc(OC(CC)CC)c(NC)nc1-c1ccc(C(C)C)nc1N(C)C` [Compound 11, [5-Ethyl-6-(2-dimethylamino-6-isopropyl-2-pyridin-3-yl)-3-(1-ethyl-propoxy)-pyrazin-2-yl]-methyl-amine] the Ki was < 1 µM.
In the case of `CCC(CC)Nc1nc(C)c(-c2nc(OC)c(NC(CC)CC)nc2C)nc1OC` [Compound 2, N-5,N-5′-Bis-(1-ethyl-propyl)-6,6′-dimethoxy-3,3′-dimethyl-[2,2′]bipyrazinyl-5,5′-diamine], the Ki is reported as < 1 µM.
With `CCc1cc(-c2nc(NC)c(OC(CC)CC)nc2CC)c(C)nc1OC` [Compound 4, [5-Ethyl-6-(5-ethyl-6-methoxy-2-methyl-pyridin-3-yl)-3-(1-ethyl-propoxy)-pyrazin-2-yl]-methyl-amine] the Ki was < 1 µM.
With `CCc1nc(OC(CC)CC)c(NC)nc1-c1ccc(C(C)C)nc1O` [Compound 9, [5-Ethyl-6-(2-hydroxy-6-isopropyl-2-pyridin-3-yl)-3-(1-ethyl-propoxy)-pyrazin-2-yl]-methyl-amine] the Ki was < 1 µM.
With `CCc1nc(OC(CC)CC)c(NC)nc1-c1ccc(N(C)C)nc1C` [Compound 10, [5-Ethyl-6-(2-methyl-6-dimethylamino-2-pyridin-3-yl)-3-(1-ethyl-propoxy)-pyrazin-2-yl]-methyl-amine] the Ki was < 1 µM.
“[5-Ethyl-6-(2-ethoxy-6-isopropoxy-2-pyridin-3-yl)-3-(1-ethyl-propoxy)-pyrazin-2-yl]-methyl-amine [Compound 7]” was tested, and the Ki was < 1 µM.
For `CCC(CC)Oc1nc(Br)c(-c2cc(Br)c(NC(C)C)nc2C)nc1NC` [Compound 15, [3-(1-Ethyl-propoxy)-6-(6-isopropyl-amino-2-methyl-5-bromo-pyridin-3-yl)-5-bromo-pyrazin-2-yl]-methyl-amine], the Ki was < 1 µM.
With `CCc1nc(OC(CC)CC)c(NC)nc1-c1c(C)noc1C` [Compound 5, [6-(3,5-Dimethyl-isoxazol-4-yl)-5-ethyl-3-(1-ethyl-propoxy)-pyrazin-2-yl]-methyl-amine] the Ki was < 1 µM.
With `CCc1cc(-c2nc(NC)c(OC(CC)CC)nc2CC)c(C)nc1N(C)C` [Compound 16, [6-(6-Dimethylamino-5-ethyl-2-methyl-pyridin-3-yl)-5-ethyl-3-(1-ethyl-propoxy)-pyrazin-2-yl]-methyl-amine] the Ki was < 1 µM.
